Zone of inhibition data for 5 compounds are collected here from ChEMBL document CHEMBL1159222, “Varacin and three new marine antimicrobial polysulfides from the far-eastern ascidian Polycitor sp” (1995).

The structures appear in SMILES notation.

Common to all, as to assay type: functional
Conditions in all cases: read-out: IZ

The subject of test [1] is Candida albicans. The test is described as follows: Antifungal activity against Candida albicans at 10 ug.
Test [2] deals with Candida albicans. The test is described as follows: Antifungal activity against Candida albicans at 0.1 ug.
Test [3] relates to Bacillus subtilis. The test is described as follows: Antibacterial activity against Bacillus subtilis at 0.1 ug.
The subject of test [4] is Bacillus subtilis. The test is described as follows: Antibacterial activity against Bacillus subtilis at 1 ug.

As to `COc1cc(CCNC(C)=O)c2c(c1OC)SS[S+]2[O-]` (configuration not stated) [VARACIN C ACETATE], the zone of inhibition at 10 µg/disc in the test with Candida albicans [1] came out at 20 mm.
Consider `COc1cc(CCNC(C)=O)c2c(c1OC)SSSSS2` [VARACIN ACETATE], for which the zone of inhibition at 10 µg/disc in the test on Candida albicans [1] is 20 mm.
For `COc1cc(CCNC(C)=O)c2c(c1OC)[S+]([O-])SS2` (configuration not stated) [VARACIN B ACETATE], in the test on Candida albicans [1], the zone of inhibition at 10 µg/disc amounted to 20 mm.
For `COc1cc(CCN)c2c(c1OC)SSSSS2` [VARACIN], the zone of inhibition at 0.1 µg/disc with Candida albicans [2] and in the test on Bacillus subtilis [3] was 20 mm in each case. In addition, the zone of inhibition at 1 µg/disc in the test on Bacillus subtilis [4] worked out at 20 mm.
For `COc1cc(CCNC(C)=O)c2c(c1OC)SSS2` [VARACIN A ACETATE], in the test on Candida albicans [1], the zone of inhibition at 10 µg/disc was 20 mm.
